IC50 data for 26 compounds are collected here from patent US5385917A, “Carboxylic acid derivatives” (Mitsubishi Kasei Corporation, priority 1992, dated 1995).

The assay deals with T1, Human steroid 5α-reductase (Homo sapiens, UniProt P31213).
T1 construct: The suspension was used as the source of 5α-reductase; from tissue; host or cells: frozen human prostate, whole homogenate in 0.1 M phosphate buffer pH 5.5
T1 sequence (P31213 1-254): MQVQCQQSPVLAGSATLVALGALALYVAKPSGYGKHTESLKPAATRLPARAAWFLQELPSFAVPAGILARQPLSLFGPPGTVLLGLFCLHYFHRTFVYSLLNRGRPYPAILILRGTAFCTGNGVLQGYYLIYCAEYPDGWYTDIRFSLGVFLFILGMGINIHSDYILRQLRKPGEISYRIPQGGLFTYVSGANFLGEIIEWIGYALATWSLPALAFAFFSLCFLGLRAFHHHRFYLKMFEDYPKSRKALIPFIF
As to the kind of experiment: Human steroid 5α-reductase inhibiting effect using human prostatic tissue. Type of assay: biochemical. Particulars: human prostate homogenate, pH 5.5, 50 nM [3H]testosterone, NADPH, 37° C., 10 min; Table 5. From the text: Human steroid 5α-reductase inhibiting effect was examined on the compounds of the present invention using human prostatic tissue.
Frozen human prostate was thawed on ice and minced into small pieces (~5mm^3). The minced tissue was homogenized with a Polytron homogenizer (Kinematica, Switzerland) in 40 vol. of 0.1M phosphate buffer at pH 5.5. The suspension was used as the source of 5α-reductase.
For this test, DMSO solutions containing various amount of the inhibitor were employed.
Each reaction solution was incubated at 37° C. for 10 minutes and ethyl acetate (2 ml) chilled with ice was added for stopping the reaction. The organic layer was transferred to another test tube and evaporated to dryness under nitrogen. Each 50 μg of non radioactive testosterone, DHT, estradiol, androstenedione and androstandiol was added to the residue, and the wall of each test tube was washed with ethyl acetate (0.1 ml). The content of the tube was evaporated again and the residue was dissolved in chloroform (50 μl) and then applied to Whatman LK60DF silica plates (Whatman, N.J.), developing in chloroform:methanol (50:1). The bands of the substrates and products were identified by fluorescence (254 nm) and iodine, and the relevant silica gel was collected by scraping, mixed with toluene based liquid sincilator, and the radioactivity was counted. The radioactivities of DHT and androstandiol were combined for the calculation of 5α-reductase activity. […] The radioactivity for the control group was postulated as 100%.
IC50 were calculated from the data obtained from the above experiments.

As for `CC12CCC(C(=O)O)=CC1=CCCC2NC(=O)c1ccc(Oc2ccccc2)cc1` (centres unmarked) [Example 1], the IC50 was 3300 nM. This lies in the single-digit micromolar range.

The compound `CC12CCC(C(=O)O)=CC1=CCCC2NC(=O)c1cccc(Oc2ccccc2)c1` (centres unmarked) [Example 2, 5-(3'-phenoxybenzoylamino)-10-methyl-Δ^1(2),8(9) -octalin-2-carboxylic acid] returned a half-inhibitory concentration (IC50) of 830 nM.

Compound `CC(C)c1ccc(Oc2cccc(C(=O)NC3CCC=C4C=C(C(=O)O)CCC43C)c2)cc1` (centres unmarked) [Example 4, 5-[3'-(p-isopropylphenoxy)benzoylamino]-10-methyl-Δ^1(2),8(9) -octalin-2-carboxylic acid] came in with a half-inhibitory concentration (IC50) of 810 nM.

As for `CC(C)c1cccc(Oc2cccc(C(=O)NC3CCC=C4C=C(C(=O)O)CCC43C)c2)c1` (centres unmarked) [Example 5, 5-[3'-(m-isopropylphenoxy)benzoylamino]-10-methyl-Δ^1(2),8(9) -octalin-2-carboxylic acid], the IC50 amounted to 460 nM.

For `Cc1ccc(Oc2cccc(C(=O)NC3CCC=C4C=C(C(=O)O)CCC43C)c2)cc1` (centres unmarked) [Example 7, 5-[3'-(p-tolyloxy)benzoylamino]-10-methyl-Δ^1(2),8(9) -octalin-2-carboxylic acid], the IC50 came to 210 nM.

Turning to `CC(C)Cc1ccc(Oc2cccc(C(=O)NC3CCC=C4C=C(C(=O)O)CCC43C)c2)cc1` (centres unmarked) [Example 9, 5-{3"-[p-(2'-methylpropyl]phenoxy)benzoylamino}-10-methyl-Δ^1(2),8(9) -octalin-2-carboxylic acid], it took 520 nM to reach half-maximal inhibition (IC50).

As for `CC12CCC(C(=O)O)=CC1=CCCC2NC(=O)c1cccc(Oc2ccc(C3CCCCC3)cc2)c1` (centres unmarked) [Example 11, 5-[3'-(p-cyclohexylphenoxy)benzoylamino]-10-methyl-Δ^1(2),8(9) -octalin-2-carboxylic acid], the midpoint of inhibition, the IC50, lay at 250 nM. This IC50 is about 2.1-fold lower than that of the compound before.

Compound `Cc1cc(C)cc(Oc2cccc(C(=O)NC3CCC=C4C=C(C(=O)O)CCC43C)c2)c1` (centres unmarked) [Example 13, 5-[3'-(3,5-dimethylphenoxy)benzoylamino]-10-methyl-Δ^1(2),8(9) -octalin-2-carboxylic acid] yielded an IC50 of 660 nM.

Regarding `CC12CCC(C(=O)O)=CC1=CCCC2NC(=O)c1cccc(Oc2ccc3c(c2)CCCC3)c1` (centres unmarked) [Example 14, 5-[3'-(5",6",7",8"-tetrahydro-2"-naphtoxy)benzoylamino]-10-methyl-Δ^1(2),8(9) -octalin-2-carboxylic acid], half-maximal inhibition (IC50) required 440 nM.

Compound `CC12CCC(C(=O)O)=CC1=CCCC2NC(=O)c1cccc(OCc2ccccc2)c1` (centres unmarked) [Example 15, 5-(3'-benzyloxy-benzoylamino)-10-methyl-Δ^1(2),8(9) -octalin-2-carboxylic acid] displayed a half-inhibitory concentration (IC50) of 4210 nM.

`CC12CCC(C(=O)O)=CC1=CCCC2NC(=O)c1cccc(OC2CCCC2)c1` (centres unmarked) [Example 17, 5-(3'-cyclopentyloxybenzoylamino)-10-methyl-Δ^1(2),8(9) -octalin-2-carboxylic acid] registered an IC50 of 180 nM.

For the compound `CC12CCC(C(=O)O)=CC1=CCCC2NC(=O)c1cccc(OC2CCCCCCC2)c1` (centres unmarked) [Example 20, 5-(3'-cyclooctyloxybenzoylamino)-10-methyl-Δ^1(2),8(9) -octalin-2-carboxylic acid], the midpoint of inhibition, the IC50, lay at 270 nM.

Take `CC(C)C1CCC(Oc2cccc(C(=O)NC3CCC=C4C=C(C(=O)O)CCC43C)c2)CC1` (centres unmarked) [Example 22, 5-[3-(4-isopropylcyclohexyloxy)benzoylamino]-10-methyl-Δ^1(2),8(9) -octalin-2-carboxylic acid]: the IC50 is 520 nM.

Turning to `CC12CCC(C(=O)O)=CC1=CCCC2NC(=O)c1cccc(O[C@H]2CC[C@H](C(C)(C)C)CC2)c1` (stereo partly drawn) [Example 23, 5-[3-(4-trans-t-butylcyclohexyloxy)benzoylamino]-10-methyl-Δ^1(2),8(9) -octalin-2-carboxylic acid], the half-maximal inhibitory concentration (IC50) turned out to be 300 nM.

Consider `CC12CCC(C(=O)O)=CC1=CCCC2NC(=O)c1cccc(OCC2CCCCC2)c1` (centres unmarked) [Example 31, 5-(3'-cyclohexylmethoxybenzoylamino)-10-methyl-Δ^1(2),8(9) -octalin-2-carboxylic acid], for which the half-maximal inhibitory concentration (IC50) amounted to 410 nM.

The compound `CC12CCC(C(=O)O)=CC1=CCCC2NC(=O)c1cccc(CC2CCCCC2)c1` (centres unmarked) [Example 35, 5-(3'-cyclohexylmethylbenzoylamino)-10-methyl-Δ^1(2),8(9) -octalin-2-carboxylic acid] gave an IC50 of 160 nM. This IC50 lies about 2.6-fold lower than the previous one.

In the case of `CC(C)c1ccc(Oc2cc(Br)cc(C(=O)NC3CCC=C4C=C(C(=O)O)CCC43C)c2)cc1` (centres unmarked) [Example 37, 5-[3-bromo-5-(p-isopropylphenoxy)benzoylamino]-10-methyl-Δ^1(2),8(9) -octalin-2-carboxylic acid], 300 nM corresponded to half-maximal inhibition (IC50).

Compound `COc1ccc(C(=O)NC2CCC=C3C=C(C(=O)O)CCC32C)cc1OC1CCCCCC1` (centres unmarked) [Example 39, 5-(3'-cycloheptyloxy-4'-methoxybenzoylamino)-10-methyl-Δ^1(2),8(9) -octalin-2-carboxylic acid] showed an IC50 of 390 nM. The IC50 values of the last two compounds are within 1.5-fold of each other.

Compound `CC12CCC(C(=O)O)=CC1=CCCC2NC(=O)c1ccc2c(c1)OC1(CCCCC1)O2` (centres unmarked) [Example 42, 5-(3',4'-cyclohexylidenedioxybenzoylamino)-10-methyl-Δ^1(2),8(9)-octalin-2-carboxylic acid] had a half-maximal inhibitory concentration (IC50) of 770 nM.

As to `CC(C)(C)c1cc(C(=O)NC2CCC=C3C=C(C(=O)O)CCC32C)cc(C(C)(C)C)c1` (centres unmarked) [Example 43, 5-(3',5'-di-t-butylbenzoylamino)-10-methyl-Δ^1(2),8(9) -octalin-2-carboxylic acid], the 50% inhibitory concentration (IC50) turned out to be 230 nM. Against the preceding compound, the IC50 is about 3.3-fold lower.

Turning to `C[C@@]12CCC(C(=O)O)=CC1=CCC[C@H]2NC(=O)c1cccc(OC2CCCCCC2)c1` [Example 45, (5R,10R)-5-(3'-cycloheptyloxybenzoylamino)-10-methyl-Δ^1(2),8(9)-octalin-2-carboxylic acid], the half-inhibitory concentration (IC50) was found to be 610 nM.

The compound `C[C@]12CCC(C(=O)O)=CC1=CCC[C@@H]2NC(=O)c1cccc(OC2CCCCCC2)c1` [Example 46, (5S,10S)-5-(3'-cycloheptyloxybenzoylamino)-10-methyl-Δ^1(2),8(9)-octalin-2-carboxylic acid] came in with a half-inhibitory concentration (IC50) of 300 nM. Compared with the last compound, the IC50 is about 2-fold lower.

Take `C[C@]12CCC(C(=O)O)=CC1=CCC[C@@H]2NC(=O)c1cccc(OC(C2CC2)C2CC2)c1` [Example 47, (5S,10S)-5-(3'-dicyclopropylmethoxybenzoylamino)-10-methyl-Δ^1(2),8(9) -octalin-2-carboxylic acid]: 160 nM corresponded to half-maximal inhibition (IC50).

`CC(C)C(Oc1cccc(C(=O)N[C@H]2CCC=C3C=C(C(=O)O)CC[C@@]32C)c1)C(C)C` [Example 48, (5S,10S)-5-[3'-(2",4"-dimethyl-3"-pentyloxy)benzoylamino]-10-methyl-Δ^1(2),8(9) -octalin-2-carboxylic acid] yielded an IC50 of 65 nM.

The compound `Cc1c(OC2CCCCCC2)cccc1C(=O)NC1CCC=C2C=C(C(=O)O)CCC21C` (centres unmarked) [Example 51, 5-(3'-cycloheptyloxy-2-methylbenzoylamino)-10-methyl -Δ^1(2),8(9) -octalin-2-carboxylic acid] had an IC50 of 910 nM.

On to `C[C@]12CCC(C(=O)O)=CC1=CC[C@@H]2NC(=O)c1cccc(OC(C2CC2)C2CC2)c1` [Example 54, (1S,8S)-1-[3'-(dicyclopropylmethyloxy)benzoylamino]-8a-methyl-1,2,6,7-tetrahydroindene-5-carboxylic acid], for which the half-inhibitory concentration (IC50) is 160 nM. This IC50 is about 5.7-fold lower than that of the compound before.

In general, IC50 refers to the concentration that gives 50% inhibition. The low end stands for inhibition by little substance, the high end for a need for much substance.
